Experimental data as given in PMC4506051, “Pharmacokinetic Profiles of Active Ingredients and Its Metabolites Derived from Rikkunshito, a Ghrelin Enhancer, in Healthy Japanese Volunteers: A Cross-Over, Randomized Study” (PLoS ONE, 2015).
Like-named read-outs stand apart in the source and are kept apart here.

Key:
[1] = Method validation: post-preparative stability (autosampler)
[2] = Stability of ingredients in gastric pH solution (pH 1.2, 37°C); type: physicochemical; settings: pH 1.2
Experimental: Rikkunshito gradually dissolved in acidic solution (pH 1.2) at 37°C, and the concentration of atractylodin after adding 0.25, 0.5, 1, and 2 h was measured by gas chromatography–mass spectrometry.

[3] = cited from earlier work
[4] = Method validation: short-term stability in plasma
[5] = Method validation: stability in blood
[6] = Randomized crossover quantitative trial: plasma pharmacokinetics of nine ingredients after rikkunshito 2.5, 5.0 or 7.5 g; settings: for AUC(0-t) / Cmax / Tmax / half-life: plasma, po; for AUC(0-t): AUC0-last; for Cmax: C max; for Tmax: Median t max (range)
Outline: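 Healthy Japanese adults (20–45 y, BMI 18–25), fasted 12 h before and 4 h after dosing, received single oral rikkunshito 2.5, 5.0 or 7.5 g in a randomized open-label three-period crossover. Plasma sampled 0–48 h; ingredients quantified by LC–MS/MS or GC–MS.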

[7] = Method validation: freeze-thaw stability in plasma
[8] = Method validation: long-term stability in plasma
[9] = Dose proportionality (linearity) test by power model for C max and AUC0-last; settings: for Dose proportionality test using power model, Inference: linear when 90% CI of β included 1, CIlower ≥0.8, and CIupper ≤1.25; for Dose proportionality test using power model, β: rikkunshito 2.5, 5.0 or 7.5 g
Experimental: The dose proportionality was analyzed via a power model [21, 22]. […] Evaluation of linearity of the dosage-exposure relationship was conducted with Phoenix WinNonlin and SAS 9.2 (SAS Institute, Inc., Cary, NC).

[10] = human, 2.5 g, rikkunshito 2.5 g single oral, n = 21, geometric mean (95% CI)
[11] = human, 5 g, rikkunshito 5.0 g single oral, n = 19, geometric mean (95% CI)
[12] = human, 7.5 g, rikkunshito 7.5 g single oral, n = 19, geometric mean (95% CI)

O=C1C[C@@H](c2ccc(O)cc2)Oc2cc(O)cc(O)c21 [Naringenin]
Post-preparative stability, RR ([1]; autosampler set at 4°C, 48 h, higher concentration (800 / 320 / 4000 pg/mL)): 87.1% | Post-preparative stability, RR ([1]; autosampler set at 4°C, 48 h, lower concentration (20 / 8 / 100 pg/mL)): 85.6% | Post-preparative stability, RR ([1]; naringenin 100 pg/mL, autosampler set at 4°C, 25 h as printed in the cell): 91.7% | Post-preparative stability, RR ([1]; naringenin 4000 pg/mL, autosampler set at 4°C, 25 h as printed in the cell): 96.7% | Stability in gastric pH solution, Quantitative value ([2]; 0.5 h): 2030 ng/mL | Stability in gastric pH solution, Quantitative value ([2]; 1 h): 2140 ng/mL | Stability in gastric pH solution, Quantitative value ([2]; 2 h): 1990 ng/mL | Maximum plasma concentration in the preliminary pharmacokinetics study ([3]; 7.5 g dosage): 0.162 ± 0.0392 ng/mL | Short-term stability, RR ([4]; naringenin 100 pg/mL, room temperature, 24 h as printed in the cell): 113.8% | Short-term stability, RR ([4]; naringenin 4000 pg/mL, room temperature, 24 h as printed in the cell): 112.2% | Short-term stability, RR ([4]; room temperature (1°C to 30°C) 4 h, higher concentration (800 / 320 / 4000 pg/mL)): 92.8% | Short-term stability, RR ([4]; room temperature (1°C to 30°C) 4 h, lower concentration (20 / 8 / 100 pg/mL)): 102.1% | Stability in blood, RR ([5]; on ice 2 h, higher concentration (800 / 320 / 4000 pg/mL)): 98.1% | Stability in blood, RR ([5]; on ice 2 h, lower concentration (20 / 8 / 100 pg/mL)): 95.8% | AUC(0-t) [6, 10]: 1.65 ng·h/mL | Cmax [6, 10]: 0.376 ng/mL | Tmax ([6]; human, 2.5 g, rikkunshito 2.5 g single oral, n = 21, median (minimum–maximum)): 5.83 h | AUC(0-t) [6, 11]: 3.32 ng·h/mL | Cmax [6, 11]: 0.878 ng/mL | Tmax ([6]; human, 5 g, rikkunshito 5.0 g single oral, n = 19, median (minimum–maximum)): 4 h | half-life ([6]; human, 5 g, t 1/2, rikkunshito 5.0 g single oral, n = 19, geometric mean (95% CI)): 4.46 h | AUC(0-t) [6, 12]: 4.63 ng·h/mL | Cmax [6, 12]: 1.15 ng/mL | Tmax ([6]; human, 7.5 g, rikkunshito 7.5 g single oral, n = 19, median (minimum–maximum)): > 3 h | half-life ([6]; human, 7.5 g, t 1/2, rikkunshito 7.5 g single oral, n = 19, geometric mean (95% CI)): < 10 h | t 1/2 ([6]; rikkunshito 7.5 g single oral, n = 19, geometric mean (95% CI)): 5.38 (3.31–8.76) h | Median t max (range) ([6]; rikkunshito 7.5 g single oral, n = 19, median (minimum–maximum)): 4.00 (2.00–6.00) h | Freeze-thaw stability, RR ([7]; −30°C to −10°C, 3 cycles, higher concentration (800 / 320 / 4000 pg/mL)): 96.7% | Freeze-thaw stability, RR ([7]; −30°C to −10°C, 3 cycles, lower concentration (20 / 8 / 100 pg/mL)): 90.6% | Long-term stability, RR ([8]; naringenin 100 pg/mL, freezer −30°C to −10°C, 22 days): 101.9% | Long-term stability, RR ([8]; naringenin 100 pg/mL, freezer, 31 days): 98.1% | Long-term stability, RR ([8]; naringenin 100 pg/mL, freezer, 220 days): 86.8% | Long-term stability, RR ([8]; naringenin 4000 pg/mL, freezer, 22 days): 95.8% | Long-term stability, RR ([8]; naringenin 4000 pg/mL, freezer, 31 days): 95.8% | Long-term stability, RR ([8]; naringenin 4000 pg/mL, freezer, 220 days): 85.2% | Dose proportionality test using power model, Inference ([9]; AUC0-last): Nonlinear | Dose proportionality test using power model, β ([9]; AUC0-last): 1.02 | Dose proportionality test using power model, Inference ([9]; Cmax): Nonlinear | Dose proportionality test using power model, β ([9]; Cmax): 1.06

COc1ccc(-c2cc(=O)c3c(OC)c(OC)c(OC)c(OC)c3o2)cc1OC [Nobiletin]
Post-preparative stability, RR ([1]; 8 pg/mL, autosampler set at 4°C for 24 h): 89.5% | Post-preparative stability, RR ([1]; 8 pg/mL, autosampler set at 4°C for 48 h): 87.7% | Post-preparative stability, RR ([1]; 320 pg/mL, autosampler set at 4°C for 24 h): 88.0% | Post-preparative stability, RR ([1]; 320 pg/mL, autosampler set at 4°C for 48 h): 89.7% | Stability in gastric pH solution, Quantitative value ([2]; 0.5 h): 18.1 ng/mL | Stability in gastric pH solution, Quantitative value ([2]; 1 h): 21.5 ng/mL | Stability in gastric pH solution, Quantitative value ([2]; 2 h): 19.6 ng/mL | Maximum plasma concentration in the preliminary pharmacokinetics study ([3]; in vivo): 0.0626 ± 0.0436 ng/mL | Short-term stability, RR ([4]; 8 pg/mL, at room temperature for 4 h): 106.5% | Short-term stability, RR ([4]; 8 pg/mL, at room temperature for 25 h): 114.3% | Short-term stability, RR ([4]; 320 pg/mL, at room temperature for 4 h): 109.7% | Short-term stability, RR ([4]; 320 pg/mL, at room temperature for 25 h): 92.5% | Stability in blood, RR ([5]; 8 pg/mL, at room temperature for 2 h): 86.3% | Stability in blood, RR ([5]; 8 pg/mL, on ice for 2 h): 91.7% | Stability in blood, RR ([5]; 320 pg/mL, at room temperature for 2 h): 99.2% | Stability in blood, RR ([5]; 320 pg/mL, on ice for 2 h): 91.3% | t max values ([6]; human, in vivo): 15 min-1 h | Freeze-thaw stability, RR ([7]; 8 pg/mL, deep freezer (−30°C to −10°C), after 3 cycles of freeze-thaw): 86.0% | Freeze-thaw stability, RR ([7]; 320 pg/mL, deep freezer (−30°C to −10°C), after 3 cycles of freeze-thaw): 107.9% | Long-term stability, RR ([8]; 8 pg/mL, freezer (−30°C to −10°C) for 13 days): 91.2% | Long-term stability, RR ([8]; 8 pg/mL, freezer (−30°C to −10°C) for 39 days): 88.0% | Long-term stability, RR ([8]; 8 pg/mL, freezer (−30°C to −10°C) for 228 days): 89.9% | Long-term stability, RR ([8]; 320 pg/mL, freezer (−30°C to −10°C) for 13 days): 114.0% | Long-term stability, RR ([8]; 320 pg/mL, freezer (−30°C to −10°C) for 39 days): 114.3% | Long-term stability, RR ([8]; 320 pg/mL, freezer (−30°C to −10°C) for 228 days): 103.2% | Dose proportionality test using power model, Inference ([9]; AUC0-last): Nonlinear | Dose proportionality test using power model, β ([9]; AUC0-last): 0.604 | Dose proportionality test using power model, Inference ([9]; Cmax): Nonlinear | Dose proportionality test using power model, β ([9]; Cmax): 0.701
